Consider 13 compounds from patent US11958871B2, “Inhibitors of bacterial glutaminyl cyclases for use in the treatment of periodontal and related diseases” (FRAUNHOFER-GESELLSCHAFT ZUR FÖRDERUNG DER ANGEWANDTEN …, priority 2018, dated 2024).

Like-named read-outs stand apart in the source and are kept apart here.

In general, Ki refers to a dissociation constant, usually derived from enzyme kinetics or from competition with a known ligand.

What all share (format): biochemical
For one test, the target named is hQC (Homo sapiens (Human), UniProt Q16769). The test can be described thus: Inhibitor assay for glutaminyl cyclase activity (fluorometric, H-Gln-AMC), hQC. Here is the method: (§1) QC activity was evaluated using H-Gln-AMC as the substrate (as previously described in Schilling et al., 2002).
Sequence of hQC (Q16769 29-361): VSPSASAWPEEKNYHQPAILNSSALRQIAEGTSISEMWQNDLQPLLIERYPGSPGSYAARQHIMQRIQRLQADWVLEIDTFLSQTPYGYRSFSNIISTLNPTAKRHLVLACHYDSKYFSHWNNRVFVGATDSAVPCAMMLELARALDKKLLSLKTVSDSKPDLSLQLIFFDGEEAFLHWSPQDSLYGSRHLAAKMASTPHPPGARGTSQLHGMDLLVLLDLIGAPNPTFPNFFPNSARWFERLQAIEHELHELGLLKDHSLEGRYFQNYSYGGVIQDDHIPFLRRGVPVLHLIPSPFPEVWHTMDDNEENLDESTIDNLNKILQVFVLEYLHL
(§2) The assay consists of varying concentration of the fluorogenic substrate and 0.5 U pyroglutaminyl aminopeptidase in 50 mM Tris-HCl, 50 mM NaCl at pH 8.0. After 10 minute incubation time at 30° C. reaction was initiated by addition of bacQC to a final volume of 125 μl reaction mixture. The excitation/emission wavelength was 380/460 nm. bacQC activity was determined from a standard curve of the fluorophore AMC under assay conditions. All determinations were carried out in 96 well microtiter plates (Fisher Scientific) at 30° C. using the FluoStar Optima (BMG Labtech).
(§3) For inhibitor testing, the sample composition was the same as described above, except for the addition of the putative inhibitory compound. […] Inhibitory constants were determined using different concentration of H-Gln-AMC varying from ¼ Km-2 Km. Final concentration of bacterial QC was in a range between 25 nM-50 nM.
(§4) The following compounds were synthesized as described in the Description of synthetic methods below. Average Ki values for the inhibition of PgQC (isolated and purified as described above), TfQC, PiQC and hQC were measured using the above inhibitor assay and are shown in. Ki refers to the average Ki values measured as described above, and Std(Ki) refers to the standard deviation of Ki.

The subject of test [1] is bacterial glutaminyl cyclases. The test can be described thus: Inhibition of bacterial glutaminyl cyclases, summary statements. Here is the method: as §3, §4
Another test has as its target TfQC (Tannerella forsythia, UniProt G8UMP8). Nature of the test: Inhibitor assay for bacterial glutaminyl cyclase activity (fluorometric, H-Gln-AMC), TfQC. The procedure: as §1, §2, §3, §4
For a further test, the target named is PgQC (Porphyromonas gingivalis, UniProt Q7MT37). The test can be described thus: Inhibitor assay for bacterial glutaminyl cyclase activity (fluorometric, H-Gln-AMC), PgQC. Here is the method:
as §1, §2, §3
(∘) represents reaction without inhibitor. Determinations were carried out in 50 mM Tris-HCl, 50 mM NaCl pH 8.0 and 1% (v/v) DMSO at 30° C.
as §4

[2] abbreviates: average Ki ± Std(Ki), read-out: hQC Ki.
The mark [3] stands for this setting: average Ki ± Std(Ki), read-out: TfQC Ki.
The mark [4] stands for this setting: average Ki ± Std(Ki), read-out: PgQC Ki.

Sequence of TfQC (G8UMP8 20-333 limits assumed): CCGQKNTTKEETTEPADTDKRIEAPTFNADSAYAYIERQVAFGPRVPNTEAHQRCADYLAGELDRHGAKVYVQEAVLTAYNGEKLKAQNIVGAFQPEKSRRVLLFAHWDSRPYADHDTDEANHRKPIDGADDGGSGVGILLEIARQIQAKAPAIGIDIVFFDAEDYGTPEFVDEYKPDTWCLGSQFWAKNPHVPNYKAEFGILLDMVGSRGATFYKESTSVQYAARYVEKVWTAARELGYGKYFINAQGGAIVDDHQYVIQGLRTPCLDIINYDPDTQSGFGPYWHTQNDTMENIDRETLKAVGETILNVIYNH
Sequence of PgQC (Q7MT37 22-333 limits assumed): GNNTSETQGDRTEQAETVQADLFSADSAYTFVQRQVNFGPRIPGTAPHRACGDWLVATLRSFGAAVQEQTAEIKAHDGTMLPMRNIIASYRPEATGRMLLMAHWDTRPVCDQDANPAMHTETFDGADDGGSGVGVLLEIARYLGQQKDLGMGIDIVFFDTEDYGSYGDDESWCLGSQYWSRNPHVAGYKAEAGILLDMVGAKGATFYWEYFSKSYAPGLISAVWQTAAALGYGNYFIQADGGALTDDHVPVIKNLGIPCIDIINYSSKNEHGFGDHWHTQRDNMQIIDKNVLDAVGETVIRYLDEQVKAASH

Regarding `c1ccc(CNc2ccc3nc[nH]c3n2)cc1` [Example 1, N-Benzylimidazo[4,5-b]pyridin-5-amine], the Ki on hQC (setting [2]) amounted to 8800 ± 127 nM; on hQC (read-out: Ki, hQC (Table 5)) it was 8800 nM; at TfQC (setting [3]) it was 8260 ± 361 nM; on TfQC (read-out: Ki, TfQC (Table 5)), 8300 nM; at PgQC (setting [4]), 1940 ± 318 nM; on PgQC (read-out: Ki, PgQC (Table 5)) it was 1950 nM. For the same compound, the “inhibitory activity against bacterial glutaminyl cyclases (in words)” value in test [1] was “significant bacQC inhibitory activity and selectivity for PgQC over hQC”. For the compound `N=C(N)NCCOc1ccc(CNc2cnc3[nH]cnc3c2)cc1` [Example 17, 1-(2-(4-((Imidazo[4,5-b]pyridin-6-ylamino)methyl)-phenoxy)ethyl)guanidine], the inhibition constant (Ki) at hQC (setting [2]) is 455 ± 14 nM; on TfQC (setting [3]) it was 123 ± 16 nM; on PgQC (setting [4]), 14 ± 0.1 nM. Regarding `CC(C)Oc1ccc(CNc2cnc3[nH]cnc3c2)cc1` [Example 18, N-[(4-Isopropoxyphenyl)methyl]-3H-imidazo[4,5-b]pyridin-6-amine], the Ki on PgQC (setting [4]) turned out to be 86 ± 5 nM. Turning to `c1ccc(Oc2cccc(CNc3cnc4[nH]cnc4c3)c2)cc1` [Example 19, N-[(3-Phenoxyphenyl)methyl]-3H-imidazo[4,5-b]pyridin-6-amine], the Ki on PgQC (setting [4]) worked out at 15 ± 0.1 nM.

As to `c1ccc(COc2ccc(CNc3cnc4[nH]cnc4c3)cc2)cc1` [Example 20, N-[(4-Benzyloxyphenyl)methyl]-3H-imidazo[4,5-b]pyridin-6-amine], the Ki at PgQC (setting [4]) turned out to be 42 ± 4 nM. For the compound `c1ccc(-c2ccc(CNc3cnc4[nH]cnc4c3)cc2)cc1` [Example 21, N-[(4-Biphenyl)methyl]-3H-imidazo[4,5-b]pyridin-6-amine], the Ki at PgQC (setting [4]) amounted to 19 ± 1 nM. On the same count and under the same terms, the figure for `COc1cc(F)c(CNc2cnc3[nH]cnc3c2)c(F)c1` [Example 22, N-[(2,6-Difluoro-4-methoxy-phenyl)methyl]-3H-imidazo[4,5-b]pyridin-6-amine] is 30 ± 1 nM; for `COc1cc(CNc2cnc3[nH]cnc3c2)cc2c1OCO2` [Example 23, N-[(7-Methoxy-1,3-benzodioxol-5-yl)methyl]-3H-imidazo-[4,5-b]pyridin-6-amine] it is 65 ± 13 nM. The same measure, in the same setting: the figure for `FC1(F)Oc2ccc(CNc3cnc4[nH]cnc4c3)cc2O1` [Example 24, N-[(2,2-Difluoro-1,3-benzodioxol-5-yl)methyl]-3H-imidazo-[4,5-b]pyridin-6-amine] is 67 ± 1 nM; for `c1ccc(-c2ccc(CNc3cnc4[nH]cnc4c3)cc2)nc1` [Example 25, N-[[4-(2-Pyridyl)phenyl]methyl]-3H-imidazo[4,5-b]pyridin-6-amine] it is 38 ± 3 nM. As for `c1nc2cc(NCc3ccc(OCCN4CCOCC4)cc3)cnc2[nH]1` [Example 26, N-[[4-(2-Morpholinoethoxy)phenyl]methyl]-3H-imidazo[4,5-b]pyridin-6-amine], the Ki on PgQC (setting [4]) worked out at 33 ± 1 nM.

Turning to `c1nc2cc(NCc3ccc(N4CCOCC4)cc3)cnc2[nH]1` [Example 27, N-[(4-morpholinophenyl)methyl]-3H-imidazo[4,5-b]pyridin-6-amine], the Ki at PgQC (setting [4]) came to 60 ± 2 nM. For the compound `O=C(c1cc(Cl)cc(Cl)c1)N1CCc2[nH]cnc2C1` [MWT-S-00431, (3,5-dichlorophenyl-1,4,6,7-tetrahydro-5H-imidazo[4,5-c]pyridin-5-yl)methanone, reference compound], the inhibitory constant (Ki) at PgQC (50 mM Tris-HCl, 50 mM NaCl pH 8.0, 1% (v/v) DMSO, 30° C., read-out: Ki, inhibition of the conversion of H-Gln-AMC by PgQC) is 104 nM.
